SMILES strings stand for the structures.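 Values below derive from 48-hour exposures of cells grown in 96-well plates, with endpoints linearly interpolated between the two concentrations bracketing the appropriate inhibition level. GI50 is the concentration that inhibits growth by half. TGI: concentration producing complete growth inhibition.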 Where only a bound is given, the exact number is not on record here.

Our source for the GI50 and TGI values is PubChem BioAssay (NCI).

Test systems include DU-145 prostate; SF-268 CNS; T-47D breast; A549 NSCLC; HCT-116 colon; SNB-75 CNS; UO-31 renal; UACC-62 melanoma; NCI-H522 lung; SW-620 colon.
What all share (test): NCI tumour cell line growth inhibition, 48 h

With `N#CC1c2ccccc2C=CN1C(=O)CCCl` (stereo not given), the GI50 was 9.04 µM with DU-145 prostate; 15.2 µM in the assay with SF-268 CNS; 3.65 µM in the assay with T-47D breast; 20.1 µM in the assay on A549 NSCLC; 3.59 µM in the assay with HCT-116 colon; 10.6 µM in the assay on SNB-75 CNS. Besides, the GI50 in the assay with UO-31 renal is 2.32 µM; in the assay on UACC-62 melanoma, 14.9 µM; with NCI-H522 lung, 1.52 µM; in the assay with SW-620 colon, 2.36 µM. Further, the TGI in the assay on DU-145 prostate turned out to be 21.9 µM; in the assay with SF-268 CNS, 30.9 µM; in the assay on T-47D breast, 17.1 µM; with A549 NSCLC, 37.3 µM; in the assay with HCT-116 colon, 11.3 µM; with SNB-75 CNS it was 25.3 µM. For the same compound, the TGI in the assay with UO-31 renal stood at 7.2 µM; with UACC-62 melanoma it was 29.7 µM; in the assay on NCI-H522 lung, 2.92 µM; in the assay with SW-620 colon, 6.53 µM.

For `CCN(CC)Cc1cc(Nc2nc(NC3CCC(N(C)C)CC3)c3ccccc3n2)ccc1OC` (stereo not given), the GI50 in the assay with DU-145 prostate was 10.5 µM; in the assay with SF-268 CNS it was 5.35 µM; with T-47D breast, 5.4 µM; with A549 NSCLC it was 3.59 µM; in the assay on HCT-116 colon, 3.37 µM; in the assay with SNB-75 CNS it was 2.17 µM. Further, the GI50 in the assay on UO-31 renal is 12.2 µM; in the assay on UACC-62 melanoma it was 13.2 µM; with NCI-H522 lung it was 2.45 µM; in the assay on SW-620 colon, 3.18 µM. In addition, the TGI in the assay with DU-145 prostate worked out at 22.2 µM; in the assay with SF-268 CNS, 20.4 µM; with T-47D breast it was 18.9 µM; with A549 NSCLC, 13.7 µM; in the assay with HCT-116 colon it was 12.8 µM; in the assay with SNB-75 CNS, 17.5 µM. Besides, the TGI in the assay with UO-31 renal stood at 27.2 µM; with UACC-62 melanoma, 27.2 µM; in the assay with NCI-H522 lung, 6.96 µM; in the assay on SW-620 colon, 13.3 µM.

Consider `Cn1nccc1Nc1nccc(-c2ccn([C@H](CO)c3ccc(Cl)c(F)c3)c(=O)c2)n1`, for which the GI50 was 27.7 µM in the assay with DU-145 prostate; 38.1 µM in the assay with SF-268 CNS; 26.5 µM with T-47D breast; 36 µM with A549 NSCLC; 2.79 µM with HCT-116 colon; 24.9 µM in the assay on SNB-75 CNS. The GI50 in the assay on UO-31 renal is 24.7 µM; in the assay with UACC-62 melanoma, 0.0922 µM; in the assay with NCI-H522 lung, 13.1 µM; in the assay with SW-620 colon, 5.02 µM. Moreover, the TGI with DU-145 prostate is more than 100 µM; with SF-268 CNS, more than 100 µM; in the assay with T-47D breast it was more than 100 µM; in the assay on A549 NSCLC it was more than 100 µM; with HCT-116 colon, 21.1 µM; with SNB-75 CNS, more than 100 µM. Also, the TGI in the assay on UO-31 renal is more than 100 µM; in the assay on UACC-62 melanoma it was more than 59.3 µM; with NCI-H522 lung, more than 51.9 µM; in the assay with SW-620 colon, 30.4 µM.

Consider `O=C1c2cccc(Oc3ccccc3)c2C(=O)c2cccc(Oc3ccccc3)c21`, for which the GI50 is more than 100 µM with DU-145 prostate; 39.8 µM in the assay with SF-268 CNS; more than 100 µM with T-47D breast; more than 100 µM with A549 NSCLC; more than 100 µM in the assay on HCT-116 colon; 9.13 µM in the assay on SNB-75 CNS. Moreover, the GI50 with UO-31 renal, with UACC-62 melanoma, with NCI-H522 lung and in the assay on SW-620 colon was more than 100 µM throughout. Besides, the TGI is more than 100 µM with DU-145 prostate; more than 100 µM in the assay on SF-268 CNS; more than 100 µM in the assay with T-47D breast; more than 100 µM in the assay on A549 NSCLC; more than 100 µM in the assay with HCT-116 colon; 42.7 µM in the assay with SNB-75 CNS. In addition, the TGI with UO-31 renal, in the assay on UACC-62 melanoma, with NCI-H522 lung and with SW-620 colon was more than 100 µM throughout.

As for `CCN(CC)CCCNc1ccc(C)c2sc3ccccc3c(=O)c12`, the GI50 was 1.04 µM in the assay on DU-145 prostate; 1.31 µM in the assay on SF-268 CNS; 0.492 µM in the assay with T-47D breast; 0.554 µM in the assay on A549 NSCLC; 0.407 µM in the assay on HCT-116 colon; 5.2 µM in the assay with SNB-75 CNS. The GI50 is 0.514 µM with UO-31 renal, 0.205 µM with UACC-62 melanoma, 3.08 µM with NCI-H522 lung and 0.393 µM with SW-620 colon. In addition, the TGI was determined as 2.44 µM with DU-145 prostate; 3.74 µM in the assay on SF-268 CNS; 2.55 µM in the assay with T-47D breast; 1.99 µM with A549 NSCLC; 1.59 µM with HCT-116 colon; 26.1 µM with SNB-75 CNS. For the same compound, the TGI in the assay with UO-31 renal turned out to be 2.07 µM; in the assay on UACC-62 melanoma, 0.42 µM; in the assay on NCI-H522 lung, 15.9 µM; with SW-620 colon, 1.51 µM.

With `COC(=O)OC1C(O[C@H]2C[C@H]3[C@@H]4CC=C5C[C@@H](O)CC[C@]5(C)[C@H]4CC[C@]3(C)[C@H]2[C@H](C)C(=O)CCC(C)C)OCC(O)C1OC1OCC(O)C(O)C1OC(=O)c1ccc(OC)cc1` (stereo not given in full), the GI50 was 0.0127 µM in the assay with DU-145 prostate; 0.0137 µM with SF-268 CNS; 0.0209 µM with T-47D breast; 0.0125 µM in the assay on A549 NSCLC; 0.00886 µM in the assay on HCT-116 colon; less than 0.00275 µM in the assay with SNB-75 CNS. For the same compound, the GI50 with UO-31 renal was 0.017 µM; in the assay on UACC-62 melanoma, 0.00621 µM; in the assay with NCI-H522 lung, 0.0146 µM; in the assay on SW-620 colon, 0.00877 µM. Moreover, the TGI in the assay with DU-145 prostate is 5.18 µM; with SF-268 CNS, 2.24 µM; in the assay with T-47D breast, 0.647 µM; in the assay on A549 NSCLC, 5.24 µM; in the assay with HCT-116 colon it was more than 27.5 µM; with SNB-75 CNS it was 3.77 µM. Besides, the TGI in the assay with UO-31 renal worked out at 0.0898 µM; in the assay with UACC-62 melanoma it was 0.0158 µM; with NCI-H522 lung it was 0.183 µM; in the assay with SW-620 colon, 0.277 µM.

For `Cc1cccc(NC(=O)c2sc3nc4c(cc3c2N)C(=O)CCC4)c1`, the GI50 in the assay with DU-145 prostate is 0.302 µM; in the assay on SF-268 CNS it was 3.07 µM; in the assay with T-47D breast it was 0.397 µM; in the assay with A549 NSCLC it was 0.335 µM; in the assay on HCT-116 colon it was 0.333 µM; in the assay on SNB-75 CNS, 0.272 µM. Further, the GI50 in the assay on UO-31 renal was 13.9 µM; with UACC-62 melanoma it was 0.49 µM; with NCI-H522 lung, 0.124 µM; in the assay with SW-620 colon it was 0.212 µM. The TGI is more than 30 µM with DU-145 prostate; more than 100 µM in the assay with SF-268 CNS; more than 100 µM in the assay with T-47D breast; more than 100 µM in the assay on A549 NSCLC; more than 100 µM in the assay on HCT-116 colon; more than 39.4 µM in the assay with SNB-75 CNS. Moreover, the TGI with UO-31 renal was 51.2 µM; in the assay on UACC-62 melanoma it was more than 89.1 µM; in the assay on NCI-H522 lung, 1.68 µM; in the assay with SW-620 colon it was more than 65.8 µM.
